Patent US20240208901A1, “Deuterated 3,3'-Diselenodipropionic Acid (DSePA) and Its Use as an Anticancer or Radioprotective Agent” (Secretary, Department of Atomic Energy, priority 2022, published 2024)

Tests used:
H3122 cells = assay: MTT assay, anti-proliferative effect in H3122 cells; type: cell-based, human; conditions: Homo sapiens, NCI-H3122, 48 h treatment, read-out: IC50 to inhibit cell proliferation
Procedure: Therefore, D-DSePA was compared with un-deuterated DSePA for its anticancer activity in A549, H1975 and H3122 cell lines which are representative of NSCLC. For this, above cells were treated with the varying concentrations (0.1-100 μM) of DSePA/D-DSePA for 48 h and the cell viability was determined by MTT assay (FIG. 9A-C). The plot of percent (%) cytotoxicity (100-% viability) versus the concentration of DSePA/D-DSePA was used to estimate the half maximum concentration (IC50) of above compounds to inhibit the proliferation of cells. […] Employing these values, the therapeutic index (IC50 in normal lung cell/IC50 in lung cancer cell) of DSePA and D-DSePA in different pairs of normal versus cancerous cells (viz., A549/WI-38, A549/WI-26 VA4, H1975/WI-38, H1975/WI-26 VA4, H3122/WI-38 and H3122/WI-26 VA4) was calculated (Table-3). […]
MTT Assay—To evaluate the anti-proliferative effect of D-DScPA and DScPA, Cells (˜5×10^3) suspended in 100 μl of complete culture medium were seeded in each well of 96 well plates. […] The percentage (%) cytotoxicity was calculated from the decrease in absorbance at 570 nm of treated groups as compared to that of control group. […] The therapeutic index was calculated by normalizing the IC50 concentration of D-DSePA/DSePA in non-cancerous cells to that in cancerous cells.

A549 cells = assay: Clonogenic assay in A549 cells; type: cell-based, human; conditions: Homo sapiens, 168 h, seven days treatment, read-out: IC50 to inhibit growth (survival fraction)
Procedure: Further, clonogenic assay is considered as the gold standard method for evaluating the anticancer activity of any compound and is also a good indicator of the in vivo efficacy of any anticancer compound. Therefore, the therapeutic index of DSePA and D-DSePA in A549/WI-38 cells was also validated by employing the clonogenic assay. For this, A549/WI-38 cells were treated with the varying concentrations (0.1-2 μM)/(1-500 μM) of DSePA/D-DSePA for seven days and the survival fraction was calculated by counting the number of surviving clones (FIG. 11A). The plot of survival fraction verses the concentration of DScPA/D-DSCPA was used to estimate the IC50 of above compounds to inhibit the growth of A549/WI-38 cells. […] This clearly confirmed that deuteration of DScPA reduced its toxicity in normal cells without compromising its efficacy in cancer cells. […]
Clonogenic assay—Clonogenic assay was performed according to the method reported previously. […] After 7 days, colonies were fixed with absolute methanol for 5 min, stained with 0.5% crystal violet for 5 min, washed with distilled water to remove excess stain and counted manually under a stereo microscope. […] The plating efficiency and the survival fraction under irradiated and drug treated conditions were calculated using following formulae: […]
The plating efficiency of A549 and WI38 cells was calculated by seeding ˜300 and ˜500 cells respectively. […]

O=C(O)CC[Se][Se]CCC(=O)O [DSePA, 3,3′-diselenodipropionic acid]
IC50 (H3122 cells): 21.5 ± 1.2 µM
IC50 (A549 cells): 1.2 ± 0.01 µM
